{"source": "paper PMC8468039", "about": "“Development of New Meridianin/Leucettine-Derived Hybrid Small Molecules as Nanomolar Multi-Kinase Inhibitors with Antitumor Activity” (Biomedicines, 2021)", "origin": "cited, not measured here", "conditions_in_all_cases": "cited from earlier work", "key": {"CLK-1": {"test_system": "CLK-1", "set-up": "method as in PMID 21615147, PMID 19879673, PMID 22998443"}, "CLK-3": {"test_system": "CLK-3", "set-up": "method as in PMID 8383730, PMID 21615147, PMID 19879673, PMID 22998443"}, "DYRK-1A": {"test_system": "DYRK-1A", "set-up": "method as in PMID 21615147, PMID 19879673, PMID 22998443"}, "DYRK-2": {"test_system": "DYRK-2", "set-up": "method as in PMID 21615147, PMID 19879673, PMID 22998443"}}}
{"smiles": "CN1C(=O)/C(=C/c2ccc3c(c2)OCO3)N=C1N", "note": "[leucettamine B, Leucettamine B]", "values": [{"measurement": "IC50", "setting": "CLK-1", "result": 400, "unit": "nM"}, {"measurement": "IC50", "setting": "CLK-3", "result": 6400, "unit": "nM"}, {"measurement": "IC50", "setting": "DYRK-1A", "result": 2800, "unit": "nM"}, {"measurement": "IC50", "setting": "DYRK-2", "result": 1500, "unit": "nM"}]}
